Legend:
[1] = comparison of caffeine absorption into the blood stream from a patch on ABTT terminus and a patch on an upper arm; type: in vivo
Experimental: One experimental technique used by Applicant to verify the efficacy of the systems, apparatuses, devices, processes, and methods disclosed herein was to compare absorption of a chemical into the blood stream. The chosen chemical was caffeine, and a comparison was made between distribution of caffeine in the body from a 15 mm by 15 mm patch placed on ABTT terminus 10 and a 15 mm by 15 mm patch placed on an upper arm. Caffeine concentration was measured in the same location on the body. […] As is evident from FIG. 106, the peak concentration of caffeine from the patch placed on the arm occurred five hours after placement of the patch, which peak concentration from the patch placed on ABTT terminus 10 was about 30 minutes after placement of the patch. […] Other compounds tested show similar results. […] In addition, it should be noted that use of a known patch would be disadvantageous if applied to ABTT terminus 10, because a lesser quantity of a drug is required to achieve the same results. […] In order to achieve the same effect at ABTT terminus 10 as application of a conventional patch in a conventional application, only about ⅔ the quantity of a drug is required for the same effect at ABTT terminus 10.

[2] = transdermal melatonin patch on the skin of ABTT target area, research setting; details: patch with water, propylene glycol, lauric acid, hydroxypropylcellulose; non-rate-limiting membrane; contact area 1.0 cm^2
Text: As a solution to this problem, MEL was applied transdermally on the skin of ABTT target area 10 using a patch that contained, in a solvent formulation, water, propylene glycol, lauric acid, and hydroxypropylcellulose, and also comprised a non-rate-limiting membrane designed to have active contact with an area 1.0 cm^2.

[3] = in vivo; cited from earlier work

SMILES | time of peak concentration of caffeine after placement of the patch ([1]; 15 mm by 15 mm patch placed on ABTT terminus, FIG. 106 curve 1416) | time of peak concentration of caffeine after placement of the patch ([1]; 15 mm by 15 mm patch placed on upper arm, FIG. 106 curve 1414) | peak concentration from patch on ABTT terminus relative to peak concentration from patch on upper arm ([1]; 15 mm by 15 mm patches, concentration measured in the same location on the body) | therapeutic effect of patch delivering melatonin through the skin of ABTT target area [2] | elimination half-life [3]
Cn1c(=O)c2c(ncn2C)n(C)c1=O [caffeine] | about 30 minutes | five | more than twice as high |  | 
COc1ccc2[nH]cc(CCNC(C)=O)c2c1 [melatonin] |  |  |  | shown to provide an intended therapeutic effect | short
